# Assay results from PubChem BioAssay (NCI).
#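 Cultured in 96-well plates, cells were exposed to test compound for 48 hours across five concentrations. Definition used: TGI = concentration required for complete inhibition of growth.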
# Key:
# Experiment in all cases: inhibition of tumour cell growth, NCI panel, 48 h
# SF-268 CNS = tested on: SF-268 CNS
# MDA-MB-435 = tested on: MDA-MB-435
# NCI-H23 lung = tested on: NCI-H23 lung
# SW-620 colon = tested on: SW-620 colon
# HT29 colon = tested on: HT29 colon
# SF-539 CNS = tested on: SF-539 CNS
# OVCAR-4 ovarian = tested on: OVCAR-4 ovarian
# SK-MEL-28 melanoma = tested on: SK-MEL-28 melanoma
# NCI/ADR-RES ovarian = tested on: NCI/ADR-RES ovarian
# NCI-H226 lung = tested on: NCI-H226 lung
# HOP-62 NSCLC = tested on: HOP-62 NSCLC
# COLO 205 colon = tested on: COLO 205 colon
# M14 melanoma = tested on: M14 melanoma
# LOX IMVI melanoma = tested on: LOX IMVI melanoma
# HCT-116 colon = tested on: HCT-116 colon
# SK-MEL-5 melanoma = tested on: SK-MEL-5 melanoma
# MCF7 breast = tested on: MCF7 breast
# TK-10 renal = tested on: TK-10 renal
# SNB-75 CNS = tested on: SNB-75 CNS
# SN12C renal = tested on: SN12C renal
# IGROV1 ovarian = tested on: IGROV1 ovarian
# PC-3 prostate = tested on: PC-3 prostate
# RPMI-8226 leukemia = tested on: RPMI-8226 leukemia
# ACHN renal = tested on: ACHN renal
# UO-31 renal = tested on: UO-31 renal
# CAKI-1 renal = tested on: CAKI-1 renal
# SK-OV-3 ovarian = tested on: SK-OV-3 ovarian
# MDA-MB-231 breast = tested on: MDA-MB-231 breast
# OVCAR-3 ovarian = tested on: OVCAR-3 ovarian
# OVCAR-8 ovarian = tested on: OVCAR-8 ovarian
# U251 CNS = tested on: U251 CNS
# SNB-19 CNS = tested on: SNB-19 CNS
# 786-0 renal = tested on: 786-0 renal
# HOP-92 NSCLC = tested on: HOP-92 NSCLC
# HCT-15 colon = tested on: HCT-15 colon
# SF-295 CNS = tested on: SF-295 CNS
# HCC-2998 colon = tested on: HCC-2998 colon
# SR leukemia = tested on: SR leukemia
# CCRF-CEM leukemia = tested on: CCRF-CEM leukemia
# NCI-H522 lung = tested on: NCI-H522 lung
# MOLT-4 leukemia = tested on: MOLT-4 leukemia
# MDA-N = tested on: MDA-N
# A549 NSCLC = tested on: A549 NSCLC
# T-47D breast = tested on: T-47D breast
# MALME-3M melanoma = tested on: MALME-3M melanoma
# NCI-H460 lung = tested on: NCI-H460 lung
# RXF 393 renal = tested on: RXF 393 renal
# KM12 colon = tested on: KM12 colon
# OVCAR-5 ovarian = tested on: OVCAR-5 ovarian
# DU-145 prostate = tested on: DU-145 prostate
# K-562 leukemia = tested on: K-562 leukemia
# HS 578T breast = tested on: HS 578T breast
# BT-549 breast = tested on: BT-549 breast
# EKVX NSCLC = tested on: EKVX NSCLC
# UACC-257 melanoma = tested on: UACC-257 melanoma
# UACC-62 melanoma = tested on: UACC-62 melanoma
# SK-MEL-2 melanoma = tested on: SK-MEL-2 melanoma
smiles,measurement,setting,value
COC(=O)c1nc(Cl)nc(Cl)c1Cl,TGI,SF-268 CNS,> 100 µM
same,TGI,MDA-MB-435,29.3 µM
same,TGI,NCI-H23 lung,> 100 µM
same,TGI,SW-620 colon,38.5 µM
same,TGI,HT29 colon,50.2 µM
same,TGI,SF-539 CNS,75.3 µM
same,TGI,OVCAR-4 ovarian,41 µM
same,TGI,SK-MEL-28 melanoma,56.9 µM
same,TGI,NCI/ADR-RES ovarian,> 100 µM
same,TGI,NCI-H226 lung,64.4 µM
same,TGI,HOP-62 NSCLC,> 100 µM
same,TGI,COLO 205 colon,36 µM
same,TGI,M14 melanoma,38.3 µM
same,TGI,LOX IMVI melanoma,29.6 µM
same,TGI,HCT-116 colon,33.2 µM
same,TGI,SK-MEL-5 melanoma,35.1 µM
same,TGI,MCF7 breast,55.1 µM
same,TGI,TK-10 renal,47.8 µM
same,TGI,SNB-75 CNS,> 100 µM
same,TGI,SN12C renal,45.1 µM
same,TGI,IGROV1 ovarian,66 µM
same,TGI,PC-3 prostate,34.9 µM
same,TGI,RPMI-8226 leukemia,63.6 µM
same,TGI,ACHN renal,27.7 µM
same,TGI,UO-31 renal,35.7 µM
same,TGI,CAKI-1 renal,32.1 µM
same,TGI,SK-OV-3 ovarian,> 100 µM
same,TGI,MDA-MB-231 breast,42.9 µM
same,TGI,OVCAR-3 ovarian,16.8 µM
same,TGI,OVCAR-8 ovarian,54.5 µM
same,TGI,U251 CNS,> 100 µM
same,TGI,SNB-19 CNS,> 100 µM
same,TGI,786-0 renal,33.1 µM
same,TGI,HOP-92 NSCLC,42.9 µM
same,TGI,HCT-15 colon,46.9 µM
same,TGI,SF-295 CNS,> 100 µM
same,TGI,HCC-2998 colon,68.3 µM
same,TGI,SR leukemia,58.7 µM
same,TGI,CCRF-CEM leukemia,27.7 µM
same,TGI,NCI-H522 lung,36.5 µM
same,TGI,MOLT-4 leukemia,32.9 µM
same,TGI,MDA-N,76.8 µM
same,TGI,A549 NSCLC,> 100 µM
same,TGI,T-47D breast,54.2 µM
same,TGI,MALME-3M melanoma,45.9 µM
same,TGI,NCI-H460 lung,> 100 µM
same,TGI,RXF 393 renal,28.2 µM
same,TGI,KM12 colon,47.3 µM
same,TGI,OVCAR-5 ovarian,52.3 µM
same,TGI,DU-145 prostate,> 100 µM
same,TGI,K-562 leukemia,31.9 µM
same,TGI,HS 578T breast,85 µM
CC(C)(C)OC(=O)NC(Cc1ccccc1)NC(=O)NC(=O)OCc1ccccc1 (configuration not stated),TGI,SF-268 CNS,> 100 µM
same,TGI,MDA-MB-435,> 100 µM
same,TGI,NCI-H23 lung,> 100 µM
same,TGI,SW-620 colon,> 100 µM
same,TGI,HT29 colon,> 100 µM
same,TGI,SF-539 CNS,60.8 µM
same,TGI,SK-MEL-28 melanoma,> 100 µM
same,TGI,NCI/ADR-RES ovarian,> 100 µM
same,TGI,NCI-H226 lung,> 100 µM
same,TGI,BT-549 breast,> 100 µM
same,TGI,HOP-62 NSCLC,> 100 µM
same,TGI,M14 melanoma,> 100 µM
same,TGI,HCT-116 colon,> 100 µM
same,TGI,SK-MEL-5 melanoma,> 100 µM
same,TGI,MCF7 breast,> 100 µM
same,TGI,EKVX NSCLC,> 100 µM
same,TGI,TK-10 renal,> 100 µM
same,TGI,SNB-75 CNS,73.2 µM
same,TGI,SN12C renal,> 100 µM
same,TGI,IGROV1 ovarian,> 100 µM
same,TGI,PC-3 prostate,> 100 µM
same,TGI,RPMI-8226 leukemia,> 100 µM
same,TGI,ACHN renal,> 100 µM
same,TGI,UACC-257 melanoma,> 100 µM
same,TGI,UO-31 renal,> 100 µM
same,TGI,CAKI-1 renal,64.1 µM
same,TGI,SK-OV-3 ovarian,> 100 µM
same,TGI,OVCAR-3 ovarian,> 100 µM
same,TGI,OVCAR-8 ovarian,> 100 µM
same,TGI,UACC-62 melanoma,> 100 µM
same,TGI,U251 CNS,> 100 µM
same,TGI,SNB-19 CNS,> 100 µM
same,TGI,786-0 renal,> 100 µM
same,TGI,HCT-15 colon,> 100 µM
same,TGI,SK-MEL-2 melanoma,> 100 µM
same,TGI,SF-295 CNS,> 100 µM
same,TGI,HCC-2998 colon,> 100 µM
same,TGI,SR leukemia,> 100 µM
same,TGI,NCI-H522 lung,> 100 µM
same,TGI,MOLT-4 leukemia,> 100 µM
same,TGI,MDA-N,> 100 µM
same,TGI,A549 NSCLC,> 100 µM
same,TGI,MALME-3M melanoma,> 100 µM
same,TGI,NCI-H460 lung,> 100 µM
same,TGI,RXF 393 renal,69.2 µM
same,TGI,KM12 colon,> 100 µM
same,TGI,OVCAR-5 ovarian,> 100 µM
same,TGI,DU-145 prostate,> 100 µM
same,TGI,K-562 leukemia,> 100 µM
same,TGI,HS 578T breast,> 100 µM
